From patent USRE37623E1, “Enzyme inhibitors, their synthesis, and methods for use” (priority 1993, dated 2002) come the findings set out here.

Like-named read-outs stand apart in the source and are kept apart here.

Data set [1] has as its target T1, UrdPase.
T1 construct: The supernatant fluids (cytosol) were collected and used as an enzyme source
Description: Inhibition of uridine phosphorylase in mouse liver cytosol (apparent Ki, Dixon plots). The format is biochemical. Particulars: for Ki: enzyme from mouse liver cytosol, uridine 1 mM, ± S.D. As to the method:
(§1) Mouse livers were obtained from female Swiss Albino (CD1) mice weighing 20-24 g (Charles River Laboratories, Boston, Mass.). Mice were sacrificed by cervical dislocation and the livers removed, weighed, minced, and homogenized in ice-cold (3:1, v/w) buffer [20 mM potassium phosphate. pH 8.0; 1 mM dithiothreitol (DTT), 1 mM EDTA] using a Polytron homogenizer (Brinkman Instruments, Westbury, N.J.). The homogenates were centrifuged at 105,000×g for 1 h. at 4° C. The supernatant fluids (cytosol) were collected and used as an enzyme source.
(§2) All assays described below were conducted at 37° C. under conditions where enzyme activity was linear with respect to time and enzyme concentration. For each inhibitor, 5 concentrations were used ranging from […]. Reactions were started by the addition of extract and stopped by boiling in a water bath for 2 minutes followed by freezing, Precipitated proteins were removed by centrifugation. Substrates were separated from products in the supematant by TLC and the radioactivity in the spots was determined on a percentage basis using a Berthold LB-2821 Automatic TLC-Linear Analyzer.
Nucleoside cleavage was measured isotopically by following the formation of nucleobases from their respective nucleosides as previously described. […] The incubation was terminated after 30 min. Uridine and thymidine were separated from their respective nucleobases on silica gel TLC plates developed with CHCl3:MEOH:AcOH (90:5:5, v/v/v). The Rf values were uridine, 0.07; uracil, 0.43; thymidine, 0.14; and thymine, 0.62.
Determination and significance of apparent Ki values was pertbrined using uridine (1 mM) and 5 different concentrations of the inhibitor ranging from […]. Apparent Ki values were estimated from Dixon's plots (1/v vs. [I]) of the data by a computer program with least squares fitting. Apparent Ki, values are related to Ki values by the following equation:
Apparent Ki=Kis(1+[S]/Km)/1+([S]/Km) (Kis/Kii)
where Kis and Kii are inhibition constants that would have been estimated from the replot of slope and intercept, respectively, of a Lineweaver-Burk plots vs. [I]. If a compound is a competitive inhibitor with respect to uridine, Kii=∝ and Kis=Ki. Therefore, the apparent .Ki=Ki(1+[S]1 Km). […] It should be noted, however, that we have not characterized the compounds used in this study with regard to the type of inhibition (competitive, noncompetitive, or uncompetitive) or whether they are substrates for the enzyme.

Data set [2] concerns the target T2, DHUDase (Mus musculus, UniProt Q8CHR6).
T2 construct: The supernatant fluids (cytosol) were collected and used as an enzyme source; from tissue; host or cells: mouse liver cytosol (female Swiss Albino CD1 mice)
T2 sequence (Q8CHR6 1-1025): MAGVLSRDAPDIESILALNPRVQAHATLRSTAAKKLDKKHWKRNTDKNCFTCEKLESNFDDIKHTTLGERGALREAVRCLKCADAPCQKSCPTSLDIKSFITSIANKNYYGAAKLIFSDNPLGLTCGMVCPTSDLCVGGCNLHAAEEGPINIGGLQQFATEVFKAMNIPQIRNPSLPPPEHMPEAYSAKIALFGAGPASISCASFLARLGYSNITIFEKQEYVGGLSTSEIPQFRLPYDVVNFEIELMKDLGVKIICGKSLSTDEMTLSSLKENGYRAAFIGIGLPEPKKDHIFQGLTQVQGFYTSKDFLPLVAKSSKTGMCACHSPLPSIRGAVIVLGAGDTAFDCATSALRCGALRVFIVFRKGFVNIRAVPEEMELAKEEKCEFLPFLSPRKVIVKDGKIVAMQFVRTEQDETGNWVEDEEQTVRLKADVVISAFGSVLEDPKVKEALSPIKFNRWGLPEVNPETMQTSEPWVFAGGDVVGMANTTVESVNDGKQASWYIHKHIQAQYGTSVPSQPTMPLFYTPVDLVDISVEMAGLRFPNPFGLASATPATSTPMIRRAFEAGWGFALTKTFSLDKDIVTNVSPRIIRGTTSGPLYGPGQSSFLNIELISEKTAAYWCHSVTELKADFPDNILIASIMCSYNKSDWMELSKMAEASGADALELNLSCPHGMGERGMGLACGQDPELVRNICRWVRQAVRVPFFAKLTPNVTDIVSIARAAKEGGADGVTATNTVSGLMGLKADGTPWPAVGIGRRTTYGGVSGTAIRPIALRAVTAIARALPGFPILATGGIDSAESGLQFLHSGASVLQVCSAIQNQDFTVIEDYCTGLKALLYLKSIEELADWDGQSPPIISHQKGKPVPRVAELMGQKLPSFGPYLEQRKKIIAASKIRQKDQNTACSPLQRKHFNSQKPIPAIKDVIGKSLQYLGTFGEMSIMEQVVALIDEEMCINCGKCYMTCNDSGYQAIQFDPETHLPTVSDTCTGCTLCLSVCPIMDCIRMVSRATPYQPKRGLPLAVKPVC
Description: Inhibition of dihydrouracil dehydrogenase in mouse liver cytosol (apparent Ki). The format is biochemical. As to conditions: enzyme from mouse liver cytosol; 25 μM uracil; ± S.D. As for the experimental part: as §1, §2
The activity of the enzyme was measured by following the formation of dihydrouracil, carbamyl-β-alanine, and β-alanine from [6 -^14C]uracil as previously described. […] DHUDase activity was determined as the sum of the products dihydrouracil, carbamyl-β-alanine, and β-alanine. […]

Data set [3] is described as follows: Pharmacokinetics of PSAU in CD-1 mice. The format is in vivo. Particulars: female CD-1 mice; for Cmax / half-life / MRT: mouse, ip, plasma; for Cmax: read-out: Cmax, peak plasma concentration; for half-life: read-out: Apt½, elimination half-life (converted); for MRT: read-out: MRT, mean residence time. As for the experimental part: PSAU was injected i.p. into female CD-1 mice. At various time intervals, 250 μl of whole blood were collected from the orbital sinuses from three mice by a heparinized Natelson pipet and placed on ice. The whole blood was then centrifuged for 5 minutes to separate the plasma which was kept in a -20° C. freezer until preparation for analysis by the HPLC. The pharmacokinetic parameters were estimated by compartmental model-independent methods using a […]/Base program. The AUC was determined by the trapezoidal rule with extrapolation to time infinity using the terminal disposition slope (K) generated by a weighted nonlinear least-squares regression of an exponential fit of the data, with the weighted square factor set as the reciprocal of the calculated concentration squared. Elimination half-life of uridine was calculated from 0.693/K The total plasma clearance (C1) was calculated by dividing the dose by the AUC and the weight of the mouse. The peak plasma concentration (Cmax) values and time to peak plasma concentration (Tmax) values were observed experimental values. Renal clearance (CLR) of uridine was calculated by dividing the […] by the AUC.

As a reminder, the melting point is the temperature of the solid-liquid transition. On to `CCOCn1cc([Se]c2ccccc2)c(=O)[nH]c1=O` [1-Ethoxymethyl-5-phenylselenenyluracil, 1-(Ethoxymethyl)-5-(phenylselenenyl)uracil], for which the melting point was 143 to 145 °C. Also, the Ki in data set [1] turned out to be 313 ± 32 µM.
Take `O=c1[nH]c(=O)n([C@H]2C[C@H](O)[C@@H](CO)O2)cc1[Se]c1ccccc1` [5-(Phenylselenenyl)-2′-deoxyuridine, 5-(phenylselenenyl)-2′-deoxyuridine]: the Ki in data set [1] was determined as 5.5 ± 0.6 µM.
Still for that read-out and setting: then `O=c1[nH]c(=O)n([C@@H]2O[C@H](CO)[C@@H](O)[C@H]2O)cc1[Se]c1ccccc1` [5-(Phenylselenenyl)uridine, 5-(phenylselenenyl)uridine], with 4 ± 0.2 µM; and `O=c1[nH]c(=O)n(COCCO)cc1Cc1ccccc1` [5-Benzylacyclouridine (BAU), 5-Benzylacyclouridine, reference compound], with 3.1 ± 0.22 µM.
In turn, `O=c1[nH]cc([Se]c2ccccc2)c(=O)[nH]1` [5-Phenylselenenyluracil (PSU), 5-Phenylselenenyluracil] displayed a melting point of 249 to 251 °C. Also, in data set [1], the Ki was 205 ± 35 µM. Moreover, the Ki in data set [2] worked out at 4.8 ± 0.6 µM.
For the compound `O=c1[nH]cc(Sc2ccccc2)c(=O)[nH]1` [5-Phenylthiouracil (PTU), 5-(Phenylthio)uracil], the Ki in data set [1] was determined as 744 ± 85 µM; in data set [2], 5.4 ± 0.6 µM.
As for `O=c1[nH]c(=O)n(COCCO)c([Se]c2ccccc2)c1F` [6-(Phenylselenenyl)acyclo-5-FUrd], the Ki in data set [1] is 35 ± 5.6 µM.
For `O=c1cc([Se]c2ccccc2)n(COCCO)c(=O)[nH]1` [6-(Phenylselenenyl)acyclouridine, 1-[(2-hydroxyethoxy)methyl]-6-(phenylselenenyl)uridine], the Ki in data set [1] stood at 19.3 ± 1.5 µM.
As usually defined, the half-life is how long it takes for the measured level to halve. By MRT is commonly meant the average time that molecules of a dose stay in the body. Consider `O=c1[nH]c(=O)n(COCCO)cc1[Se]c1ccccc1` [PSAU, 1-[(2-Hydroxyethoxy)methyl]-5-(phenylselenenyl)uracil], for which, in data set [1], the Ki came to 3.8 ± 0.8 µM. Besides, in data set [3] (PSAU 30 mg/kg i.p.), the “ApVd, volume of distribution” value was 0.331 L/kg; the Cmax was 100 µM; the half-life was 42 min; the MRT stood at 1.28 h. In addition, in data set [3] (PSAU 60 mg/kg i.p.), the “ApVd, volume of distribution” value was 0.356 L/kg; the Cmax came out at 210 µM; the half-life is 84 min; the MRT stood at 2.27 h.
Usually Km stands for the concentration of substrate that gives half-maximal velocity. For `O=c1ccn([C@@H]2O[C@H](CO)[C@@H](O)[C@H]2O)c(=O)[nH]1` [uridine], the Km in data set [1] (UrdPase from mouse liver, substrate) was determined as 66 µM.
